# How the values were obtained:
# Test in all cases: Histone peptide microarray
# Format in all cases: binding, human
# Conditions in all cases: histone peptide array
# KDM5A (3) = system: KDM5A (3)
# In short: (§1)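 Recombinant GST-PHD protein at 0.5 μM; 293-member modified histone peptide array; signals averaged from four repeats ± SD.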
# CHD4 (PPCC) = system: CHD4 (PPCC)
# In short: as §1
# TRIM66 (PB) = system: TRIM66 (PB)
# In short: as §1
# MORC3 (CW) = system: MORC3 (CW)
# In short: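 A peptide microarray holding 293 synthetic histone peptides with individual or combinatorial modifications was probed with each GST-PHD protein at 0.5 μM. Values represent mean intensity (±SD) from four replicates.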
# DPF2 (PPC2W2) = system: DPF2 (PPC2W2)
# In short: as §1
# ING3 = system: ING3
# In short: as §1
# ING4 = system: ING4
# In short: as §1
# KDM5B (1) = system: KDM5B (1)
# In short: as §1
# ING2 = system: ING2
# In short: as §1
# TAF3 = system: TAF3
# In short: as §1
# KDM7A = system: KDM7A
# In short: as §1
# PHF13 = system: PHF13
# In short: as §1
# KDM5A (1) = system: KDM5A (1)
# In short: as §1
# SP140L = system: SP140L
# In short: as §1
# BAZ2B = system: BAZ2B
# In short: as §1
# PHF2 = system: PHF2
# In short: as §1
# KDM5B (3) = system: KDM5B (3)
# In short: as §1
# CHD5 (PCC) = system: CHD5 (PCC)
# In short: as §1
# PHF21A = system: PHF21A
# In short: as §1
# CHD5 (PPCC) = system: CHD5 (PPCC)
# In short: as §1
# MLL5 = system: MLL5
# In short: as §1
# ING5 = system: ING5
# In short: as §1
# BPTF (PB) = system: BPTF (PB)
# In short: as §1
# DIDO1 = system: DIDO1
# In short: as §1
# PHRF1 (RP) = system: PHRF1 (RP)
# In short: as §1
# ING1 = system: ING1
# In short: as §1
# PHF23 = system: PHF23
# In short: as §1
# RAG2 = system: RAG2
# In short: as §1
# AIRE (PP) = system: AIRE (PP)
# In short: as §1
# KDM4C (TTP) = system: KDM4C (TTP)
# In short: as §1
# PHF8 = system: PHF8
# In short: as §1
# [1] = sheet "Array Heatmap", GST-tagged reader, total n = 4
substance,measurement,setting,value
H3T3p: H3 1-20 [Peptide H3T3p],"Array Heatmap signal, KDM5A (3)","KDM5A (3); GST-tagged KDM5A (3), arrays performed twice, n of 4",0.3913
same,"Array Heatmap signal, KDM5A (3)",KDM5A (3); [1],0.4935
same,"Array Heatmap signal, CHD4 (PPCC)","CHD4 (PPCC); GST-tagged CHD4 (PPCC = Dual PHD + Dual Chromodomain), arrays performed twice, n of 4",0.5719
same,"Array Heatmap signal, CHD4 (PPCC)",CHD4 (PPCC); [1],0.6586
same,"Array Heatmap signal, TRIM66 (PB)","TRIM66 (PB); GST-tagged TRIM66 (PB = PHD + Bromodomain), arrays performed twice, n of 4",0.6313
same,"Array Heatmap signal, TRIM66 (PB)",TRIM66 (PB); [1],0.6558
same,"Array Heatmap signal, MORC3 (CW)","MORC3 (CW); GST-tagged MORC3 (CW = CW-type Zn-finger), arrays performed twice, n of 4",0.3786
same,"Array Heatmap signal, MORC3 (CW)",MORC3 (CW); [1],0.4886
same,"Array Heatmap signal, DPF2 (PPC2W2)","DPF2 (PPC2W2); GST-tagged DPF2 (PPC2W2 = Dual PHD + C2W2-type Zn-finger), arrays performed twice, n of 4",0.671
same,"Array Heatmap signal, DPF2 (PPC2W2)",DPF2 (PPC2W2); [1],0.7196
same,"Array Heatmap signal, ING3","ING3; GST-tagged ING3, arrays performed twice, n of 4",0.4483
same,"Array Heatmap signal, ING3",ING3; [1],0.5306
same,"Array Heatmap signal, ING4","ING4; GST-tagged ING4, arrays performed twice, n of 4",0.4601
same,"Array Heatmap signal, ING4",ING4; [1],0.5373
same,"Array Heatmap signal, KDM5B (1)","KDM5B (1); GST-tagged KDM5B (1), arrays performed twice, n of 4",0.6719
same,"Array Heatmap signal, KDM5B (1)",KDM5B (1); [1],0.685
same,"Array Heatmap signal, ING2","ING2; GST-tagged ING2, arrays performed twice, n of 4",0.5798
same,"Array Heatmap signal, ING2",ING2; [1],0.6196
same,"Array Heatmap signal, TAF3","TAF3; GST-tagged TAF3, arrays performed twice, n of 4",0.2971
same,"Array Heatmap signal, TAF3",TAF3; [1],0.3113
same,"Array Heatmap signal, KDM7A","KDM7A; GST-tagged KDM7A, arrays performed twice, n of 4",0.4522
same,"Array Heatmap signal, KDM7A",KDM7A; [1],0.4256
same,"Array Heatmap signal, PHF13","PHF13; GST-tagged PHF13, arrays performed twice, n of 4",0.5934
same,"Array Heatmap signal, PHF13",PHF13; [1],0.6741
same,"Array Heatmap signal, KDM5A (1)","KDM5A (1); GST-tagged KDM5A (1), arrays performed twice, n of 4",0.4969
same,"Array Heatmap signal, KDM5A (1)",KDM5A (1); [1],0.535
same,"Array Heatmap signal, SP140L","SP140L; GST-tagged SP140L, arrays performed twice, n of 4",0.3332
same,"Array Heatmap signal, SP140L",SP140L; [1],0.3882
same,"Array Heatmap signal, BAZ2B","BAZ2B; GST-tagged BAZ2B, arrays performed twice, n of 4",0.469
same,"Array Heatmap signal, BAZ2B",BAZ2B; [1],0.5253
same,"Array Heatmap signal, PHF2","PHF2; GST-tagged PHF2, arrays performed twice, n of 4",0.434
same,"Array Heatmap signal, PHF2",PHF2; [1],0.5551
same,"Array Heatmap signal, KDM5B (3)","KDM5B (3); GST-tagged KDM5B (3), arrays performed twice, n of 4",0.5071
same,"Array Heatmap signal, KDM5B (3)",KDM5B (3); [1],0.5631
same,"Array Heatmap signal, CHD5 (PCC)","CHD5 (PCC); GST-tagged CHD5 (PCC = PHD + Dual Chromodomain), arrays performed twice, n of 4",0.8206
same,"Array Heatmap signal, CHD5 (PCC)",CHD5 (PCC); [1],0.8423
same,"Array Heatmap signal, PHF21A","PHF21A; GST-tagged PHF21A, arrays performed twice, n of 4",0.4766
same,"Array Heatmap signal, PHF21A",PHF21A; [1],0.5237
same,"Array Heatmap signal, CHD5 (PPCC)","CHD5 (PPCC); GST-tagged CHD5 (PPCC = Dual PHD + Dual Chromodomain), arrays performed twice, n of 4",0.549
same,"Array Heatmap signal, CHD5 (PPCC)",CHD5 (PPCC); [1],0.6245
same,"Array Heatmap signal, MLL5","MLL5; GST-tagged MLL5, arrays performed twice, n of 4",0.5378
same,"Array Heatmap signal, MLL5",MLL5; [1],0.5888
same,"Array Heatmap signal, ING5","ING5; GST-tagged ING5, arrays performed twice, n of 4",0.3543
same,"Array Heatmap signal, ING5",ING5; [1],0.4158
same,"Array Heatmap signal, BPTF (PB)","BPTF (PB); GST-tagged BPTF (PB = PHD + Bromodomain), arrays performed twice, n of 4",0.3368
same,"Array Heatmap signal, BPTF (PB)",BPTF (PB); [1],0.3878
same,"Array Heatmap signal, DIDO1","DIDO1; GST-tagged DIDO1, arrays performed twice, n of 4",0.6402
same,"Array Heatmap signal, DIDO1",DIDO1; [1],0.7808
same,"Array Heatmap signal, PHRF1 (RP)","PHRF1 (RP); GST-tagged PHRF1 (RP), arrays performed twice, n of 4",0.4037
same,"Array Heatmap signal, PHRF1 (RP)",PHRF1 (RP); [1],0.5425
same,"Array Heatmap signal, ING1","ING1; GST-tagged ING1, arrays performed twice, n of 4",0.5096
same,"Array Heatmap signal, ING1",ING1; [1],0.5929
same,"Array Heatmap signal, PHF23","PHF23; GST-tagged PHF23, arrays performed twice, n of 4",0.4911
same,"Array Heatmap signal, PHF23",PHF23; [1],0.575
same,"Array Heatmap signal, RAG2","RAG2; GST-tagged RAG2, arrays performed twice, n of 4",0.2333
same,"Array Heatmap signal, RAG2",RAG2; [1],0.2772
same,"Array Heatmap signal, AIRE (PP)","AIRE (PP); GST-tagged AIRE (PP), arrays performed twice, n of 4",0.5392
same,"Array Heatmap signal, AIRE (PP)",AIRE (PP); [1],0.548
same,"Array Heatmap signal, KDM4C (TTP)","KDM4C (TTP); GST-tagged KDM4C (TTP = Tandem Tudor domain + PHD), arrays performed twice, n of 4",0.5211
same,"Array Heatmap signal, KDM4C (TTP)",KDM4C (TTP); [1],0.5646
same,"Array Heatmap signal, PHF8","PHF8; GST-tagged PHF8, arrays performed twice, n of 4",0.352
same,"Array Heatmap signal, PHF8",PHF8; [1],0.4275

# — paper PMC6979384, “Characterization of the plant homeodomain (PHD) reader family for their histone tail interactions” (Epigenetics & Chromatin, 2020)
